± gives the expanded uncertainty stated by the source.
What was measured:
[1] = Liquid, Ebulliometric method (Recirculating still)
[2] = refractive index (Na D-line) (dimensionless); details: 293.15 K; 101.33 kPa; Liquid; Standard Abbe refractometry

Row | Compound | vapor or sublimation pressure ([1]; 323 K) [kPa] | vapor or sublimation pressure ([1]; 343.4 K) [kPa] | vapor or sublimation pressure ([1]; 353.2 K) [kPa] | vapor or sublimation pressure ([1]; 363.1 K) [kPa] | vapor or sublimation pressure ([1]; 369.2 K) [kPa] | refractive index [2]
1 | CCCCCCCCCCCC [dodecane] | 0.12 | 0.46 | 0.73 ± 1.2 | 1.31 ± 1.2 | 1.76 ± 1.2 | 1.4192 ± 0.0007
2 | CCCO [propan-1-ol] | 12.11 ± 1.2 | 32.82 ± 1.2 | 50.82 ± 1.3 | 76.67 ± 1.4 | 96.66 ± 1.4 | 1.382 ± 0.0007

Source: the NIST ThermoML archive (doi:10.1021/je201032t)
